Experimental data: article PMC9112895, “Selective Inhibition of Plasmodium falciparum ATPase 6 by Artemisinins and Identification of New Classes of Inhibitors after Expression in Yeast” (Antimicrobial Agents and Chemotherapy, 2022)

What was measured:
PfATP6 = PfATP6 (Plasmodium falciparum, UniProt Q08853); test: cell-based; format: cell-based; design: pUGpd containing the yeast-optimized coding region of PfATP6 from Plasmodium falciparum; expressed in transfected cells; host or cells: Saccharomyces cerevisiae K667 and K667Δpdr5::HIS; conditions: growth inhibition, K667Δpdr5[PfATP6]
Description: The screening assay used here was developed from the protocol used by Pulcini et al. ([13]). A single colony of the yeast strain to be screened was picked and grown in 5 mL of selective medium until stationary phase was reached. The culture was diluted 100-fold in ampicillin-supplemented yeast extract-peptone-dextrose (YPD) medium to an OD at 620 nm (OD620) equivalent to that of lag phase. YPD medium was supplemented with an appropriate concentration of calcium, depending on the transformed strain. […] The optimal calcium concentration was periodically monitored and, if necessary, adjusted using a calcium concentration range of 10 to 30 mM. A final volume of 200 μL of the yeast culture was added to each well of a 96-well plate, with 5 technical replicates included per inhibitor. All inhibitors were dissolved in dimethyl sulfoxide (DMSO) unless otherwise stated. […] The 96-well plates were incubated at 30°C for 42 h. The yeast growth was estimated from the absorbance at 620 nm in a Tecan plate reader. Growth was normalized with the no-drug control to present data as percent growth. The data collected were analyzed using GraphPad Prism v9.0 (GraphPad software, San Diego, CA, U.S.A).

K667Δpdr5::pUGpd = test: Yeast whole-cell growth inhibition, vector-only control K667Δpdr5::pUGpd; format: cell-based, Saccharomyces cerevisiae; conditions: compound screen
Description: The screening assay used here was developed from the protocol used by Pulcini et al. ([13]). A single colony of the yeast strain to be screened was picked and grown in 5 mL of selective medium until stationary phase was reached. The culture was diluted 100-fold in ampicillin-supplemented yeast extract-peptone-dextrose (YPD) medium to an OD at 620 nm (OD620) equivalent to that of lag phase. YPD medium was supplemented with an appropriate concentration of calcium, depending on the transformed strain. The optimal calcium concentration for the PfATP6-expressing strain was 22 mM, and that for the SERCA1a-expressing strain was […]. The optimal calcium concentration was periodically monitored and, if necessary, adjusted using a calcium concentration range of 10 to 30 mM. A final volume of 200 μL of the yeast culture was added to each well of a 96-well plate, with 5 technical replicates included per inhibitor. All inhibitors were dissolved in dimethyl sulfoxide (DMSO) unless otherwise stated. Stock solutions of each inhibitor were diluted 100-fold in each well to give the desired final concentration. […] The 96-well plates were incubated at 30°C for 42 h. The yeast growth was estimated from the absorbance at 620 nm in a Tecan plate reader. […] The data collected were analyzed using GraphPad Prism v9.0 (GraphPad software, San Diego, CA, U.S.A).

SERCA1a [1] = target: T1, SERCA1a (Oryctolagus cuniculus, UniProt P04191); test: Yeast whole-cell growth inhibition assay, K667Δpdr5[SERCA1a]; format: cell-based, rabbit; design: containing the SERCA1a coding region from rabbit skeletal fast-twitch muscle; expressed in transfected cells; host or cells: Saccharomyces cerevisiae K667 and K667Δpdr5::HIS
Description: (§1) Yeast transformations were performed using the method described by Gietz and Schiestl ([48]), and transformants were selected by an uracil auxotrophic marker. Transformations were confirmed by colony PCR. Both K667 and K667Δpdr5::HIS were transformed with the following plasmids: pUGpd plasmid as a vector-only control (derived from pRS316 [49]); br434 plasmid (derived from pRS316 [50]) containing the SERCA1a coding region from rabbit skeletal fast-twitch muscle (pbr434-SERCA1a); and pUGpd containing the yeast-optimized coding region of PfATP6 from Plasmodium falciparum (pUGpd-PfATP6). Site-directed mutagenesis was performed on the SERCA1a coding region to produce the mutation E255L in the protein. Mutations were also introduced into the PfATP6 coding region to produce mutations L263E, A623E, and S769N and the double mutation A623E/S769N ([13]).
(§2) The screening assay used here was developed from the protocol used by Pulcini et al. ([13]). A single colony of the yeast strain to be screened was picked and grown in 5 mL of selective medium until stationary phase was reached. The culture was diluted 100-fold in ampicillin-supplemented yeast extract-peptone-dextrose (YPD) medium to an OD at 620 nm (OD620) equivalent to that of lag phase. YPD medium was supplemented with an appropriate concentration of calcium, depending on the transformed strain. The optimal calcium concentration for the PfATP6-expressing strain was 22 mM, and that for the SERCA1a-expressing strain was […]. The optimal calcium concentration was periodically monitored and, if necessary, adjusted using a calcium concentration range of 10 to 30 mM. A final volume of 200 μL of the yeast culture was added to each well of a 96-well plate, with 5 technical replicates included per inhibitor. All inhibitors were dissolved in dimethyl sulfoxide (DMSO) unless otherwise stated. […] The yeast growth was estimated from the absorbance at 620 nm in a Tecan plate reader. […] The data collected were analyzed using GraphPad Prism v9.0 (GraphPad software, San Diego, CA, U.S.A).

SERCA1a [2] = target: T1, SERCA1a; test: Yeast whole-cell growth inhibition assay, K667::SERCA1a; format: cell-based, rabbit; design: containing the SERCA1a coding region from rabbit skeletal fast-twitch muscle; expressed in transfected cells; host or cells: Saccharomyces cerevisiae K667 and K667Δpdr5::HIS; conditions: measured at 40 h
Description: as §1
The screening assay used here was developed from the protocol used by Pulcini et al. ([13]). […] The optimal calcium concentration was periodically monitored and, if necessary, adjusted using a calcium concentration range of 10 to 30 mM. […] The yeast growth was estimated from the absorbance at 620 nm in a Tecan plate reader. […] The data collected were analyzed using GraphPad Prism v9.0 (GraphPad software, San Diego, CA, U.S.A).

E255LSERCA1a = target: T2, E255LSERCA1a (Oryctolagus cuniculus, UniProt P04191, E255L); test: Yeast whole-cell growth inhibition assay, K667Δpdr5[SERCA1a]255L; format: cell-based, rabbit
T2 construct: expressed in transfected cells; host or cells: Saccharomyces cerevisiae K667Δpdr5
Description: The E255L mutation was introduced into SERCA1a using the following primers: forward, 5′-[…]-3′; reverse, 5′-[…]-3′. Site-directed mutagenesis was performed using the Agilent Quikchange Lightning site-directed mutagenesis kit, following the manufacturer’s instructions. Mutants were screened by Sanger sequencing (Eurofins, UK).
as §2, with “mM.” for “mM. A final volume of 200 μL of the yeast culture was added to each well of a 96-well plate, with 5 technical replicates included per inhibitor. All inhibitors were dissolved in dimethyl sulfoxide (DMSO) unless otherwise stated.”

T1 sequence (P04191 other isoform, or with tags, fused parts or gaps): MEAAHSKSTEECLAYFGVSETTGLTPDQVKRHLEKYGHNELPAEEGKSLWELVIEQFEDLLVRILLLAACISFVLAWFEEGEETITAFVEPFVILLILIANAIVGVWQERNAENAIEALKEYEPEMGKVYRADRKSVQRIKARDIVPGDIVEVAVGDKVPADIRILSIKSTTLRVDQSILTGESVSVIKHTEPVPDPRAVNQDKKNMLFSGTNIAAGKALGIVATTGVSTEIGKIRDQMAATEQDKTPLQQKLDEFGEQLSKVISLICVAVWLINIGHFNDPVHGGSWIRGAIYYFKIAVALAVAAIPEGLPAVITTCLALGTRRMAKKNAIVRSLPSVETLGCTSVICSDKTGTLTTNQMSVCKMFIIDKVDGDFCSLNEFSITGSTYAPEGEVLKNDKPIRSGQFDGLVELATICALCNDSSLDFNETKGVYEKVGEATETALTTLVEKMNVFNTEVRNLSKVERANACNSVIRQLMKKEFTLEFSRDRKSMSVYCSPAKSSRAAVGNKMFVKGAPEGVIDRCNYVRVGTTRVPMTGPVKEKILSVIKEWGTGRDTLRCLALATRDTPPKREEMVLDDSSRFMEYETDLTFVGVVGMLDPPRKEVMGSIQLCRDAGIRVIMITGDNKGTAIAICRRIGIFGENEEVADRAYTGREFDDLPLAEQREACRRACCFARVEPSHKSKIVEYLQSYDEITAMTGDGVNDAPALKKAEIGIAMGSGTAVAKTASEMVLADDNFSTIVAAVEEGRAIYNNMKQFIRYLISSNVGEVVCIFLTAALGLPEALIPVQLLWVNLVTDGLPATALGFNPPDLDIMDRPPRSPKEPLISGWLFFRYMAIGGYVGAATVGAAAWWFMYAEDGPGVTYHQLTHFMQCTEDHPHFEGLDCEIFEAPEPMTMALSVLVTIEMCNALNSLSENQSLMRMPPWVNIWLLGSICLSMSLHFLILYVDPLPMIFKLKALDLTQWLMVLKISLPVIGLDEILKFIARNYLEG
T2 sequence (P04191 other isoform, or with tags, fused parts or gaps E255L): as the sequence (P04191 other isoform, or with tags, fused parts or gaps) above, with E255L counted along it
Chain of PfATP6 (Q08853 whole entry): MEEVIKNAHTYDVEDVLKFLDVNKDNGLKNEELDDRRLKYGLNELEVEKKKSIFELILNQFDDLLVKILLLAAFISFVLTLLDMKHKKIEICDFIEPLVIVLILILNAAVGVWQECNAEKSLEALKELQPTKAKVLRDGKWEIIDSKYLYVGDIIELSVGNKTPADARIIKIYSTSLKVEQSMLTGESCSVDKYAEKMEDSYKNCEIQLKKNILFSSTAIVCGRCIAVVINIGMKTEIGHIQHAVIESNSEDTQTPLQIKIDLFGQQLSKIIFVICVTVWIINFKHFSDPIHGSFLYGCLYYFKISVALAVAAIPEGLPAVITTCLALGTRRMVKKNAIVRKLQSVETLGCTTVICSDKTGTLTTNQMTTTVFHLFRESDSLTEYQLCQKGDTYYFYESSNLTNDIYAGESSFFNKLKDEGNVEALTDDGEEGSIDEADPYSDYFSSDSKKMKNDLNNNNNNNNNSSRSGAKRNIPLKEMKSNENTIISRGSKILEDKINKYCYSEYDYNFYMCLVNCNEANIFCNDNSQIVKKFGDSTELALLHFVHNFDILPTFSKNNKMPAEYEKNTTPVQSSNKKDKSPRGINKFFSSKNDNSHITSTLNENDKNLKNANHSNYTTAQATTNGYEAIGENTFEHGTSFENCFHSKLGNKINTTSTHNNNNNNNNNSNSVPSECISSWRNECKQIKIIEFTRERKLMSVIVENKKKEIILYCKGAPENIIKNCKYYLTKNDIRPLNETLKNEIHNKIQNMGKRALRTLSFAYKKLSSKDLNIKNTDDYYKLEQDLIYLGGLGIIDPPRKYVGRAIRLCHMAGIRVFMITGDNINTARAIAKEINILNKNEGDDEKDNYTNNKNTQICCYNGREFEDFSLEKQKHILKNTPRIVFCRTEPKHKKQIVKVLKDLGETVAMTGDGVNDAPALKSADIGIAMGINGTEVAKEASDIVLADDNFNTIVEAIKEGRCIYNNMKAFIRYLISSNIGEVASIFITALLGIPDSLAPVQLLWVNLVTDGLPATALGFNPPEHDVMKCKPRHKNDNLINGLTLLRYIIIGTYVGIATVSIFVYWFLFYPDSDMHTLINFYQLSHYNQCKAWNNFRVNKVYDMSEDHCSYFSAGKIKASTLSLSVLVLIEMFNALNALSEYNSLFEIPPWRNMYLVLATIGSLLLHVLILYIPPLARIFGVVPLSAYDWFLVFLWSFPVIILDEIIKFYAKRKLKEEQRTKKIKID

| Compound | inhibition of PfATP6 in compound screen (PfATP6) | inhibition of control strain K667Δpdr5::pUGpd (K667Δpdr5::pUGpd) | inhibition of control strain K667Δpdr5::SERCA1a (SERCA1a [1]; compound screen) | IC50 (SERCA1a [2]) [nM] | IC50 (E255LSERCA1a) [nM] | fold less sensitive, E255LSERCA1a versus wild-type (E255LSERCA1a) [fold] | fold lower IC50 in K667DPDR5::SERCA1a than in K667::SERCA1a (SERCA1a [1]) [fold] | IC50 (SERCA1a [1]; K667DPDR5::SERCA1a (wild-type E255), measured at 40 h) [nM] |
| --- | --- | --- | --- | --- | --- | --- | --- | --- |
| O=C(Nc1cccc(C(F)(F)F)c1)c1cc(Cl)ccc1O [MMV665807] | highest reproducible potency | almost no inhibition | almost no inhibition |  |  |  |  |  |
| C/C=C(/C)C(=O)O[C@H]1C(C)=C2[C@H]([C@@H]1OC(=O)CCCCCCC)[C@@](C)(OC(C)=O)C[C@H](OC(=O)CCC)[C@@]1(O)[C@H]2OC(=O)[C@@]1(C)O [thapsigargin] |  |  |  | 335 ± 67.5 | 794 ± 247 | 5 | > 2 | 142 ± 43.9 |
